How the values were obtained:
[1] = molecular target: T1, human plasma type α1,3FucT (Homo sapiens, UniProt Q11128); assay: Substrate specificity and inhibition study of α1,3FucT (GDP-14C-Fuc transfer assay); type: biochemical; conditions: 0.1 mM GDP-Fuc
T1 sequence (Q11128 1-374): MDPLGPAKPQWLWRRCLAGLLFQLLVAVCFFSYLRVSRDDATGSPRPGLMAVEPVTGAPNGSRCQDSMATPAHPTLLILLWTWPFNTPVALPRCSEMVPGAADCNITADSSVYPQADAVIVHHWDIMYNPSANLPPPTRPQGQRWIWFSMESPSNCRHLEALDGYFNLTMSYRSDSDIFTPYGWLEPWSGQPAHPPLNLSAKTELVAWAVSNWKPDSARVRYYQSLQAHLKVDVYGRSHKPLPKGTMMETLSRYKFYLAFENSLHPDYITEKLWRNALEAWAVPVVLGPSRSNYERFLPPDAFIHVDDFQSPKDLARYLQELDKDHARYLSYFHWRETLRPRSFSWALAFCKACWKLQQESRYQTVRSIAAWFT
Protocol: The assay procedure was essentially the same as described previously [Fukowska-Latallo et al, Gene & Development, 4:1288 (1990)] with some modifications. A stock mixture containing 0.25 mM GDP-^14C-Fuc (5000 cpm/mL), 6.25 mM ATP, 25 mM MnCl2 and 62.5 mM sodium cacodylate buffer, pH 6.2 was mixed freshly and kept on ice. […] The incubation was carried out at 37° C. for 30 to 240 minutes depending upon the acceptor under study. Separate assays in the absence of acceptor were used to correct for background hydrolysis of GDP-Fuc. Upon completion of incubation, 400 μL of a 25 percent (v/v) suspension of QAE-Sephadex was added. […] From the supernatant fluid, 200 μL were extracted and mixed with 10 mL of scintillation cocktail. The radioactivity was counted on a scintillation counter. […] This assay can be run in the absence of ATP.

α2,3SiaT = molecular target: T2, α2,3SiaT (Rattus norvegicus, UniProt Q02734); assay: Enzymatic sialylation with α2,3sialyltransferase; type: biochemical
T2 construct: fusion protein between the pre-insulin signal peptide and the catalytic domain of the sialyltransferase; pre-insulin signal peptide (N); made in house; host or cells: Sf-9 insect cells (baculovirus rBv2,3ST), secreted into the medium
T2 sequence (Q02734 48-374 limits assumed): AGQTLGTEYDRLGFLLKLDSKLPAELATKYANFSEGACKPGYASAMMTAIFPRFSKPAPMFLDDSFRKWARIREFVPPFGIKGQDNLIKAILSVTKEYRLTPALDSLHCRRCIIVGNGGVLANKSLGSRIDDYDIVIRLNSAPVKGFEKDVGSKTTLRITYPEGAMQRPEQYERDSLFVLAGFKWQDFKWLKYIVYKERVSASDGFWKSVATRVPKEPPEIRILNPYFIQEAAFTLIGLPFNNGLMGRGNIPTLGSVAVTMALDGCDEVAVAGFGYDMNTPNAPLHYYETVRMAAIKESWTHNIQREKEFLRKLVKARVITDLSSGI
Text: Sialylation A multienzyme system for sialylation starts with NeuAc, [Gal-1-^13C]-LacNAcβOallyl, PEP, and catalytic amounts of ATP and CMP, as is shown in Scheme 16, below. CMP was converted to CDP by nucleoside monophosphate kinase (EC 2.7.4.4, NMK) in the presence of ATP, which was regenerated from its byproduct ADP catalyzed by PK in the presence of PEP, then to CTP with PEP by PK. The CTP was then reacted with NeuAc with CMP-NeuAc synthetase (EC 2.7.7.43) to produce CMP-NeuAc. The byproduct, PPi was hydrolyzed to Pi by PPase. Sialylation of LacNAcβOallyl was accomplished with CMP-NeuAc and α2,3sialyltransferase (α2,3SiaT; EC 2.4.99.6). The released CMP was again converted to CDP, CTP, and finally to CMP-NeuAc. Using this system, [Gal-1-^13C]NeuAcα2,3Galβ1,4GlcNAcβOallyl (Compound 42) as well as the unlabelled trisaccharide were prepared.
A solution of Compound 1-^13C-41 (210 mg, […]), NeuAc (160 mg, […]), PEP Na3 salt (120 mg, 0.51 mmol), MgCl2.6H2O (20 mg, 0.10 mmol), MnCl2.4H2O (4.9 mg, 0.025 mmol), KCl (7.5 mg, 0.10 mmol), CMP (16 mg, 0.05 mmol), ATP (2.7 mg, […]) and mercaptoethanol (0.34 mL) in HEPES buffer (200 mM, pH 7.5; 3.5 mL) was adjusted with N NaOH to pH 7.5 and the enzymes, NMK (5 U), PK (100 U), PPase (10 U), CMP-NeuAc synthetase (0.4 U) and α2,3SiaT (0.1 U) were added to the solution. […]

## OC[C@H]1O[C@@H](O[C@H]2[C@H](O)C=CO[C@@H]2CO)[C@H](O)[C@@H](O)[C@H]1O [Galβ1,4Glucal]
[1]; 10 mM Mn2+ and 10 mM LacNAc at pH 6.2 and 37° C.
  IC50: > 50 mM
[1]; 10 mM MnCl2 and 10 mM Galβ1,4GlcNAc, Galβ1,4GlcNAc = 100
  Vrel (relative maximal velocities): 10
α2,3SiaT
  substrate for α2,3SiaT (in words): good substrate

— US7335500B2, “Production of fucosylated carbohydrates by enzymatic fucosylation synthesis of sugar nucleotides; and in situ regeneration of GDP-fucose” (The Scripps Research Institute, priority 1991, dated 2008)
